Assay results taken from patent US8486977B2, “1,2,3-triazole derivatives for use as stearoyl-CoA desaturase inhibitors” (GlaxoSmithKline LLC, priority 2007, dated 2013).

| Structure (SMILES) | melting point |
| --- | --- |
| Cc1c(C(=O)Nc2ccc(CO)c(CO)c2)nnn1Cc1cccc(F)c1 [Example 85, N-[3,4-bis(Hydroxymethyl)phenyl]-1-[(3-fluorophenyl)methyl]-5-methyl-1H-1,2,3-triazole-4-carboxamide] | 157.2 °C |
| Cc1c(C(=O)Nc2cccc(C(=O)O)c2)nnn1Cc1ccc(Cl)c(Cl)c1 [Example 63, 3-[({1-[(3,4-Dichlorophenyl)methyl]-5-methyl-1H-1,2,3-triazol-4-yl}carbonyl)amino]benzoic acid] | 267.6 °C |
| Cc1c(C(=O)Nc2cc(CO)ccc2F)nnn1Cc1ccc(Cl)c(Cl)c1 [Example 55, 1-[(3,4-Dichlorophenyl)methyl]-N-[2-fluoro-5-(hydroxymethyl)phenyl]-5-methyl-1H-1,2,3-triazole-4-carboxamide] | 210.5 °C |
| COc1ccc(C(N)=O)cc1NC(=O)c1nnn(Cc2ccc(Cl)c(Cl)c2)c1C [Example 33, N-[5-(Aminocarbonyl)-2-(methyloxy)phenyl]-1-[(3,4-dichlorophenyl)methyl]-5-methyl-1H-1,2,3-triazole-4-carboxamide] | 218.2 °C |
| Cc1c(C(=O)Nc2cccc(C(C)O)c2)nnn1Cc1ccc(Cl)c(Cl)c1 (stereo not drawn) [Example 44, 1-[(3,4-Dichlorophenyl)methyl]-N-[3-(1-hydroxyethyl)phenyl]-5-methyl-1H-1,2,3-triazole-4-carboxamide] | 145 °C |
| CCOC(=O)c1cccc(NC(=O)c2nnn(Cc3ccc(Cl)c(Cl)c3)c2C)c1 [Example 20, Ethyl 3-[({1-[(3,4-dichlorophenyl)methyl]-5-methyl-1H-1,2,3-triazol-4-yl}carbonyl)amino]benzoate] | 131.8 °C |
| Cc1c(CO)cccc1NC(=O)c1nnn(Cc2ccccc2)c1C [Example 39, N-[3-(Hydroxymethyl)-2-methylphenyl]-5-methyl-1-(phenylmethyl)-1H-1,2,3-triazole-4-carboxamide] | 157 °C |
| COC(=O)c1ccc(F)c(NC(=O)c2nnn(Cc3ccc(Cl)c(Cl)c3)c2C)c1 [Example 36, Methyl 3-[({1-[(3,4-dichlorophenyl)methyl]-5-methyl-1H-1,2,3-triazol-4-yl}carbonyl)amino]-4-fluorobenzoate] | 195.7 °C |
| COc1ccc(NC(=O)c2nnn(Cc3ccc(C)cc3)c2C)cc1OC | 156 °C (dec.) |
| Cc1c(C(=O)Nc2ccc(CO)c(CO)c2)nnn1Cc1cccc(Cl)c1 [Example 82, N-[3,4-bis(Hydroxymethyl)phenyl]-1-[(3-chlorophenyl)methyl]-5-methyl-1H-1,2,3-triazole-4-carboxamide] | 157 °C |
| Cc1c(C(=O)Nc2ccc(-c3ncco3)cc2)nnn1Cc1ccc(Cl)c(Cl)c1 [Example 15, 1-[(3,4-Dichlorophenyl)methyl]-5-methyl-N-[4-(1,3-oxazol-2-yl)phenyl]-1H-1,2,3-triazole-4-carboxamide] | 218 °C |
| Cc1c(C(=O)Nc2ccc(O)c(CO)c2)nnn1Cc1ccc(Cl)c(Cl)c1 [Example 26, 1-[(3 4 Dichlorophenyl)methyl]-N-[4-hydroxy-3-(hydroxymethyl)phenyl]-5-methyl-1H-1,2,3-triazole-4-carboxamide] | 175.6 °C |
| COc1ccc(NC(=O)c2nnn(Cc3ccc(Br)cc3)c2C)cc1OC | 173 °C |
| Cc1c(C(=O)Nc2ccc(CO)c(CO)c2)nnn1Cc1ccccc1 [Example 80, N-[3,4-bis(Hydroxymethyl)phenyl]-5-methyl-1-(phenylmethyl)-1H-1,2,3-triazole-4-carboxamide] | 171.4 °C |
| Cc1c(C(=O)Nc2cccc(C(C)(C)O)c2)nnn1Cc1ccc(Cl)c(Cl)c1 [Example 76, 1-[(3,4-Dichlorophenyl)methyl]-N-[3-(1-hydroxy-1-methylethyl)phenyl]-5-methyl-1H-1,2,3-triazole-4-carboxamide] | 58 °C |
| Cc1c(C(=O)Nc2ccc(OCCC(C)C)cc2)nnn1Cc1ccc(-c2ccccc2Cl)cc1 [Example 9, 1-[(2’-Chloro-4-biphenylyl)methyl]-5-methyl-N-{4-[(3-methylbutyl)oxy]phenyl}-1H-1,2,3-triazole-4-carboxamide] | 125 °C (dec.) |
| Cc1ccc(Cn2nnc(C(=O)Nc3ccc(OCCC(C)C)cc3)c2C)cc1 | 105 °C |
| COc1ccc(CO)cc1NC(=O)c1nnn(Cc2cc(Cl)cc(Cl)c2)c1C [Example 57, 1-[(3,5-Dichlorophenyl)methyl]-N-[5-(hydroxymethyl)-2-(methyloxy)phenyl]-5-methyl-1H-1,2,3-triazole-4-carboxamide] | 214 °C |
| Cc1c(C(=O)Nc2cccc(CO)c2)nnn1Cc1ccccc1 [Example 37, N-[3-(Hydroxymethyl)phenyl]-5-methyl-1-(phenylmethyl)-1H-1,2,3-triazole-4-carboxamide] | 105.8 °C |
| COC(=O)c1ccc(NC(=O)c2nnn(Cc3ccc(Cl)c(Cl)c3)c2C)cc1C(=O)OC [Example 46, Dimethyl 4-[({1-[(3,4-dichlorophenyl)methyl]-5-methyl-1H-1,2,3-triazol-4-yl}carbonyl)amino]-1,2-benzenedicarboxylate] | 148 °C |
| Cc1c(C(=O)Nc2cc(CO)ccc2Cl)nnn1Cc1ccc(Cl)c(Cl)c1 [Example 56, N-[2-Chloro-5-(hydroxymethyl)phenyl]-1-[(3,4-dichlorophenyl)methyl]-5-methyl-1H-1,2,3-triazole-4-carboxamide] | 220 °C |

| Structure (SMILES) | melting point |
| --- | --- |
| C=C(C)c1ccc(NC(=O)c2nnn(Cc3ccc(Cl)c(Cl)c3)c2C)c(OC)c1 | 170 °C |
| Cc1c(C(=O)Nc2ccc(OCc3ccccc3)cc2)nnn1Cc1ccccc1 [Example 7, 5-Methyl-1-(phenylmethyl)-N-{4-[(phenylmethyl)oxy]phenyl}-1H-1,2,3-triazole-4-carboxamide] | 125 °C |
| Cc1c(C(=O)Nc2ccc(F)c(CO)c2)nnn1Cc1ccc(Cl)c(Cl)c1 [Example 53, 1-[(3,4-Dichlorophenyl)methyl]-N-[4-fluoro-3-(hydroxymethyl)phenyl]-5-methyl-1H-1,2,3-triazole-4-carboxamide] | 189.7 °C |
| CCNC(=O)c1cccc(NC(=O)c2nnn(Cc3ccc(Cl)c(Cl)c3)c2C)c1 [Example 67, 1-[(3,4-Dichlorophenyl)methyl]-N-{3-[(ethylamino)carbonyl]phenyl}-5-methyl-1H-1,2,3-triazole-4-carboxamide] | 192.2 °C |
| CCOC(=O)Cc1ccc(NC(=O)c2nnn(Cc3ccc(Cl)c(Cl)c3)c2C)cc1 [Example 27, Ethyl {4-[({1-[(3,4-dichlorophenyl)methyl]-5-methyl-1H-1,2,3-triazol-4-yl}carbonyl)amino]phenyl}acetate] | 139 °C |
| Cc1c(C(=O)Nc2cccc(CCO)c2)nnn1Cc1ccc(Cl)c(Cl)c1 [Example 62, 1-[(3,4-Dichlorophenyl)methyl]-N-[3-(2-hydroxyethyl)phenyl]-5-methyl-1H-1,2,3-triazole-4-carboxamide] | 142 °C |
| Cc1c(CNc2cc(CO)cc(CO)c2)nnn1Cc1ccc(Cl)c(Cl)c1 [Example 79, {5-[({1-[(3,4-Dichlorophenyl)methyl]-5-methyl-1H-1,2,3-triazol-4-yl}methyl)amino]benzene-1,3-diyl}dimethanol] | 120 °C |
| Cc1c(C(=O)Nc2cccc(O)c2)nnn1Cc1ccc(Cl)c(Cl)c1 | 192.5 °C |
| Cc1c(C(=O)Nc2ccc(Cl)c(CO)c2)nnn1Cc1ccc(Cl)c(Cl)c1 [Example 45, N-[4-Chloro-3-(hydroxymethyl)phenyl]-1-[(3,4-dichlorophenyl)methyl]-5-methyl-1H-1,2,3-triazole-4-carboxamide] | 190.3 °C |
| Cc1c(NC(=O)c2ccc(CO)cc2)nnn1Cc1ccc(Cl)c(Cl)c1 [Example 93, N-{1-[(3,4-Dichlorophenyl)methyl]-5-methyl-1H-1,2,3-triazol-4-yl}-4-(hydroxymethyl)benzamide] | 160 °C |
| Cc1c(C(=O)Nc2cc(CO)cc(CO)c2)nnn1Cc1ccc(F)cc1 [Example 81, N-[3,5-bis(Hydroxymethyl)phenyl]-1-[(4-fluorophenyl)methyl]-5-methyl-1H-1,2,3-triazole-4-carboxamide] | 180.3 °C |
| CC(=O)Nc1ccc(NC(=O)c2nnn(Cc3ccc(Cl)c(Cl)c3)c2C)cc1 [Example 22, N-[4-(Acetylamino)phenyl]-1-[(3,4-dichlorophenyl)methyl]-5-methyl-1H-1,2,3-triazole-4-carboxamide] | 202.4 °C |
| Cc1c(C(=O)Nc2ccc(OCCC(C)C)cc2)nnn1Cc1ccccc1 | 124 °C |
| Cc1c(C(=O)Nc2cccc(C(=O)NCCO)c2)nnn1Cc1ccc(Cl)c(Cl)c1 [Example 68, 1-[(3,4-Dichlorophenyl)methyl]-N-(3-{[(2-hydroxyethyl)amino]carbonyl}phenyl)-5-methyl-1H-1,2,3-triazole-4-carboxamide] | 190.7 °C |
| COc1ccc(CO)cc1NC(=O)c1nnn(Cc2ccc(Cl)c(Cl)c2)c1C [Example 51, 1-[(3,4-Dichlorophenyl)methyl]-N-[5-(hydroxymethyl)-2-(methyloxy)phenyl]-5-methyl-1H-1,2,3-triazole-4-carboxamide] | 198 °C |
| Cc1c(C(=O)Nc2ccc(OCCC(C)C)cc2)nnn1Cc1ccc(F)cc1 | 114 °C |
| Cc1c(C(=O)Nc2cccc(CO)c2)nnn1Cc1cccc(Cl)c1 [Example 86, 1-[(3-Chlorophenyl)methyl]-N-[3-(hydroxymethyl)phenyl]-5-methyl-1H-1,2,3-triazole-4-carboxamide] | 151.9 °C |
| Cc1c(C(=O)Nc2cc(CO)cc(CO)c2)nnn1Cc1ccc(Cl)c(Cl)c1 [Example 52, N-[3,5-bis(Hydroxymethyl)phenyl]-1-[(3,4-dichlorophenyl)methyl]-5-methyl-1H-1,2,3-triazole-4-carboxamide] | 194.5 °C |
| COC(=O)Cc1cccc(NC(=O)c2nnn(Cc3ccc(Cl)c(Cl)c3)c2C)c1 [Example 30, Methyl {3-[({1-[(3,4-dichlorophenyl)methyl]-5-methyl-1H-1,2,3-triazol-4-yl}carbonyl)amino]phenyl}acetate] | 116 °C |
| Cc1c(C(=O)Nc2ccc(OCCC(C)C)cc2)nnn1Cc1ccc(C(C)C)cc1 | 114 °C (dec.) |
| COc1ccc(NC(=O)c2nnn(Cc3ccc(F)cc3)c2C)cc1OC | 119.7 °C |
